# Measurements published in PubChem BioAssay (NCI).
#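 Dose response: 5 concentrations. Exposure: 48 h. Format: 96-well plates. Endpoint: linear interpolation; highest concentration if not reached. At the TGI there is no net growth.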
# How the values were obtained:
# Experiment in all cases: NCI anticancer screen, dose series, 48 h
# [1] = tested on: HS 578T breast
# [2] = tested on: NCI/ADR-RES ovarian
# [3] = tested on: A498 renal
# [4] = tested on: SF-268 CNS
# [5] = tested on: NCI-H226 lung
# [6] = tested on: SW-620 colon
# [7] = tested on: BT-549 breast
# [8] = tested on: HL-60(TB) leukemia
# [9] = tested on: CCRF-CEM leukemia
# [10] = tested on: OVCAR-8 ovarian
# [11] = tested on: MDA-MB-231 breast
# [12] = tested on: MDA-MB-435
# [13] = tested on: RXF 393 renal
# [14] = tested on: LOX IMVI melanoma
# [15] = tested on: OVCAR-4 ovarian
# [16] = tested on: UACC-62 melanoma
# [17] = tested on: SNB-75 CNS
# [18] = tested on: RPMI-8226 leukemia
# [19] = tested on: SK-MEL-28 melanoma
# [20] = tested on: SN12C renal
# [21] = tested on: SK-OV-3 ovarian
# [22] = tested on: SK-MEL-2 melanoma
# [23] = tested on: HOP-92 NSCLC
# [24] = tested on: OVCAR-5 ovarian
# [25] = tested on: K-562 leukemia
# [26] = tested on: MOLT-4 leukemia
# [27] = tested on: IGROV1 ovarian
# [28] = tested on: SR leukemia
# [29] = tested on: T-47D breast
# [30] = tested on: COLO 205 colon
# [31] = tested on: NCI-H23 lung
# [32] = tested on: UACC-257 melanoma
# [33] = tested on: 786-0 renal
# [34] = tested on: HOP-62 NSCLC
# [35] = tested on: ACHN renal
# [36] = tested on: PC-3 prostate
# [37] = tested on: SK-MEL-5 melanoma
# [38] = tested on: HT29 colon
# [39] = tested on: HCC-2998 colon
# [40] = tested on: CAKI-1 renal
# [41] = tested on: HCT-15 colon
# [42] = tested on: MCF7 breast
# [43] = tested on: MDA-N
# [44] = tested on: MALME-3M melanoma
# [45] = tested on: OVCAR-3 ovarian
# [46] = tested on: KM12 colon
# [47] = tested on: SF-539 CNS
# [48] = tested on: TK-10 renal
# [49] = tested on: NCI-H522 lung
# [50] = tested on: SF-295 CNS
# [51] = tested on: DU-145 prostate
# [52] = tested on: NCI-H460 lung
# [53] = tested on: EKVX NSCLC
# [54] = tested on: HCT-116 colon
# [55] = tested on: M14 melanoma
# [56] = tested on: UO-31 renal
# [57] = tested on: A549 NSCLC
# [58] = tested on: SNB-19 CNS
# [59] = tested on: U251 CNS
smiles,measurement,setting,value
CCOc1cc(NC(C)=O)ccc1C(=O)N/N=C/c1ccco1,TGI,[1],> 100 µM
same,TGI,[2],> 100 µM
same,TGI,[3],> 100 µM
same,TGI,[4],> 100 µM
same,TGI,[5],> 100 µM
same,TGI,[6],> 100 µM
same,TGI,[7],> 100 µM
same,TGI,[8],> 100 µM
same,TGI,[9],> 100 µM
same,TGI,[10],> 100 µM
same,TGI,[11],> 100 µM
same,TGI,[12],> 100 µM
same,TGI,[13],> 100 µM
same,TGI,[14],> 100 µM
same,TGI,[15],> 100 µM
same,TGI,[16],> 100 µM
same,TGI,[17],> 100 µM
same,TGI,[18],> 100 µM
same,TGI,[19],> 100 µM
same,TGI,[20],> 100 µM
same,TGI,[21],> 100 µM
same,TGI,[22],> 100 µM
same,TGI,[23],> 100 µM
same,TGI,[24],> 100 µM
same,TGI,[25],> 100 µM
same,TGI,[26],74.6 µM
same,TGI,[27],> 100 µM
same,TGI,[28],31.3 µM
same,TGI,[29],> 100 µM
same,TGI,[30],> 100 µM
same,TGI,[31],> 100 µM
same,TGI,[32],> 100 µM
same,TGI,[33],> 100 µM
same,TGI,[34],> 100 µM
same,TGI,[35],> 100 µM
same,TGI,[36],> 100 µM
same,TGI,[37],> 100 µM
same,TGI,[38],> 100 µM
same,TGI,[39],> 100 µM
same,TGI,[40],> 100 µM
same,TGI,[41],> 100 µM
same,TGI,[42],> 100 µM
same,TGI,[43],> 100 µM
same,TGI,[44],> 100 µM
same,TGI,[45],> 100 µM
same,TGI,[46],> 100 µM
same,TGI,[47],> 100 µM
same,TGI,[48],> 100 µM
same,TGI,[49],> 100 µM
same,TGI,[50],> 100 µM
same,TGI,[51],> 100 µM
same,TGI,[52],> 100 µM
same,TGI,[53],> 100 µM
same,TGI,[54],> 100 µM
CCOC(=O)c1c(N2CCOCC2)[nH]c(=O)c(C(c2c(O)c(C(=O)OCC)c(N3CCOCC3)[nH]c2=O)C(C)C)c1O,TGI,[1],> 100 µM
same,TGI,[2],> 100 µM
same,TGI,[3],> 100 µM
same,TGI,[4],> 100 µM
same,TGI,[5],> 100 µM
same,TGI,[6],> 100 µM
same,TGI,[7],> 100 µM
same,TGI,[8],> 100 µM
same,TGI,[9],> 100 µM
same,TGI,[55],> 100 µM
same,TGI,[56],> 100 µM
same,TGI,[10],> 100 µM
same,TGI,[11],> 100 µM
same,TGI,[12],> 100 µM
same,TGI,[13],> 100 µM
same,TGI,[14],> 100 µM
same,TGI,[15],> 100 µM
same,TGI,[16],> 100 µM
same,TGI,[17],69.7 µM
same,TGI,[18],> 100 µM
same,TGI,[19],> 100 µM
same,TGI,[20],> 100 µM
same,TGI,[21],> 100 µM
same,TGI,[22],> 100 µM
same,TGI,[23],> 100 µM
same,TGI,[24],> 100 µM
same,TGI,[25],> 100 µM
same,TGI,[26],> 100 µM
same,TGI,[28],> 100 µM
same,TGI,[29],> 100 µM
same,TGI,[30],> 100 µM
same,TGI,[31],> 100 µM
same,TGI,[32],> 100 µM
same,TGI,[33],> 100 µM
same,TGI,[34],> 100 µM
same,TGI,[35],> 100 µM
same,TGI,[36],> 100 µM
same,TGI,[37],> 100 µM
same,TGI,[38],> 100 µM
same,TGI,[39],> 100 µM
same,TGI,[40],> 100 µM
same,TGI,[41],> 100 µM
same,TGI,[57],> 100 µM
same,TGI,[42],> 100 µM
same,TGI,[43],> 100 µM
same,TGI,[44],> 100 µM
same,TGI,[45],> 100 µM
same,TGI,[46],> 100 µM
same,TGI,[47],> 100 µM
same,TGI,[58],> 100 µM
same,TGI,[48],> 100 µM
same,TGI,[49],> 100 µM
same,TGI,[59],> 100 µM
same,TGI,[50],> 100 µM
same,TGI,[51],> 100 µM
same,TGI,[52],> 100 µM
same,TGI,[53],> 100 µM
same,TGI,[54],> 100 µM
CCC(C#N)N(Cc1ccc(CN(C(=O)c2ccccc2)C(C#N)CC)cc1)C(=O)c1ccccc1 (centres undefined),TGI,[1],> 100 µM
same,TGI,[2],> 100 µM
same,TGI,[3],65 µM
same,TGI,[4],> 100 µM
same,TGI,[5],78.1 µM
same,TGI,[6],93 µM
same,TGI,[7],72.7 µM
same,TGI,[8],84.1 µM
same,TGI,[9],51.1 µM
same,TGI,[55],> 100 µM
same,TGI,[56],93.4 µM
same,TGI,[10],> 100 µM
same,TGI,[11],85.2 µM
same,TGI,[12],65.7 µM
same,TGI,[13],> 100 µM
same,TGI,[14],31.4 µM
same,TGI,[15],80.9 µM
same,TGI,[16],60.1 µM
same,TGI,[17],68.8 µM
same,TGI,[18],42.7 µM
same,TGI,[20],69.3 µM
same,TGI,[21],> 100 µM
same,TGI,[22],56.8 µM
same,TGI,[23],35.3 µM
same,TGI,[24],> 100 µM
same,TGI,[25],> 100 µM
same,TGI,[26],65 µM
same,TGI,[27],61.8 µM
same,TGI,[28],> 100 µM
same,TGI,[29],67 µM
same,TGI,[30],31.3 µM
same,TGI,[31],> 100 µM
same,TGI,[32],49 µM
same,TGI,[33],50.2 µM
same,TGI,[34],90.4 µM
same,TGI,[35],> 100 µM
same,TGI,[36],> 100 µM
same,TGI,[37],25.8 µM
same,TGI,[38],43.9 µM
same,TGI,[39],36.7 µM
same,TGI,[40],> 100 µM
same,TGI,[41],> 100 µM
same,TGI,[57],> 100 µM
same,TGI,[42],93.6 µM
same,TGI,[43],> 100 µM
same,TGI,[44],88.5 µM
same,TGI,[45],48.2 µM
same,TGI,[46],67.7 µM
same,TGI,[47],48.6 µM
same,TGI,[58],> 100 µM
same,TGI,[48],74.4 µM
same,TGI,[49],> 100 µM
same,TGI,[59],56.1 µM
same,TGI,[50],> 100 µM
same,TGI,[51],> 100 µM
same,TGI,[53],93.3 µM
same,TGI,[54],96.8 µM
